Key:
Assay in all cases: relative viability (nuclei count vs DMSO), 5 days (fraction); higher = more cells survive
NPK76-II-72-1 + OSI-027 = compound: CC1CC(=O)N(C2=CN=C(N=C2N1C3CCCC3)NC4=C(C=C(C=C4)C(=O)NC5CCN(CC5)C)OC)C [NPK76-II-72-1] + COc1cccc2cc(-c3nc([C@H]4CC[C@H](C(=O)O)CC4)n4ncnc(N)c34)[nH]c12 [OSI-027] (partner 0.5 µM)
Method in brief: (§1)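 Lung cancer cell lines in 1536-well plates were dosed by pin tool the day after seeding, either with one drug alone or with a fixed anchor-drug dose plus five library-drug doses (not always all listed) in √10 steps. After 5 days, cells were fixed and their nuclei stained in one step (final 0.05% Triton X-100, 1% formaldehyde, 1 ug/ml Hoechst), then counted on 4× images. Relative viability is the nuclei count in treated wells divided by that in vehicle wells. Values are medians of duplicate plates.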

BI-2536 + Luminespib = compound: CC[C@@H]1C(=O)N(C)c2cnc(Nc3ccc(C(=O)NC4CCN(C)CC4)cc3OC)nc2N1C1CCCC1 [BI-2536] + CCNC(=O)c1noc(-c2cc(C(C)C)c(O)cc2O)c1-c1ccc(CN2CCOCC2)cc1 [Luminespib] (partner 0.01 µM)
Method in brief: as §1

BI-2536 + Lapatinib = compound: CC[C@@H]1C(=O)N(C)c2cnc(Nc3ccc(C(=O)NC4CCN(C)CC4)cc3OC)nc2N1C1CCCC1 [BI-2536] + CS(=O)(=O)CCNCc1ccc(-c2ccc3ncnc(Nc4ccc(OCc5cccc(F)c5)c(Cl)c4)c3c2)o1 [Lapatinib] (partner 2 µM)
Method in brief: as §1

BI-2536 + AZD7762 = compound: CC[C@@H]1C(=O)N(C)c2cnc(Nc3ccc(C(=O)NC4CCN(C)CC4)cc3OC)nc2N1C1CCCC1 [BI-2536] + NC(=O)Nc1cc(-c2cccc(F)c2)sc1C(=O)N[C@H]1CCCNC1 [AZD7762] (partner 0.2 µM)
Method in brief: as §1

Cell Line | relative viability (NPK76-II-72-1 + OSI-027; first compound 0.01 µM) | relative viability (NPK76-II-72-1 + OSI-027; first compound 0.03162 µM) | relative viability (NPK76-II-72-1 + OSI-027; first compound 0.1 µM) | relative viability (NPK76-II-72-1 + OSI-027; first compound 0.3162 µM) | relative viability (NPK76-II-72-1 + OSI-027; first compound 1 µM) | relative viability (BI-2536 + Luminespib; first compound 0.01 µM) | relative viability (BI-2536 + Luminespib; first compound 0.03162 µM) | relative viability (BI-2536 + Luminespib; first compound 0.1 µM) | relative viability (BI-2536 + Luminespib; first compound 0.3162 µM) | relative viability (BI-2536 + Luminespib; first compound 1 µM) | relative viability (BI-2536 + Lapatinib; first compound 0.01 µM) | relative viability (BI-2536 + Lapatinib; first compound 0.03162 µM) | relative viability (BI-2536 + Lapatinib; first compound 0.1 µM) | relative viability (BI-2536 + Lapatinib; first compound 0.3162 µM) | relative viability (BI-2536 + Lapatinib; first compound 1 µM) | relative viability (BI-2536 + AZD7762; first compound 0.01 µM) | relative viability (BI-2536 + AZD7762; first compound 0.03162 µM) | relative viability (BI-2536 + AZD7762; first compound 0.1 µM) | relative viability (BI-2536 + AZD7762; first compound 0.3162 µM) | relative viability (BI-2536 + AZD7762; first compound 1 µM)
NCI-H596 | 0.873 | 0.666 | 0.748 | 0.691 | 0.67 | 1.02 | 1.12 | 0.986 | 0.37 | 0.29 | 1.17 | 1.05 | 0.571 | 0.346 | 0.273 | 1.1 | 1.14 | 1.11 | 0.342 | 0.403
A-427 | 0.497 | 0.526 | 0.452 | 0.376 | 0.434 | 0.841 | 0.829 | 0.525 | 0.144 | 0.137 | 0.905 | 1.08 | 1 | 0.969 | 0.135 | 0.728 | 0.867 | 0.436 | 0.195 | 0.173
EMC-BAC-2 | 0.372 | 0.351 | 0.391 | 0.361 | 0.415 | 1.22 | 1.19 | 1.08 | 0.251 | 0.22 | 0.881 | 0.837 | 0.767 | 0.182 | 0.154 | 1.05 | 1.21 | 0.777 | 0.269 | 0.277
NCI-H441 | 0.596 | 0.73 | 0.561 | 0.579 | 0.788 | 0.296 | 0.32 | 0.288 | 0.237 | 0.271 |  |  |  |  |  | 0.977 | 1.21 | 0.228 | 0.174 | 0.21
LCLC-103H | 0.458 | 0.41 | 0.477 | 0.439 | 0.413 | 0.95 | 1.05 | 0.842 | 0.188 | 0.184 |  |  |  |  |  | 0.804 | 0.826 | 0.605 | 0.244 | 0.169
HCC-827 | 0.75 | 0.788 | 0.835 | 0.597 | 0.801 | 0.801 | 0.35 | 0.401 | 0.203 | 0.138 | 0.209 | 0.117 | 0.176 | 0.178 | 0.157 | 0.234 | 0.217 | 0.186 | 0.182 | 0.14
NCI-H1355 | 0.332 | 0.421 | 0.397 | 0.384 | 0.489 | 0.612 | 0.547 | 0.546 | 0.2 | 0.187 | 0.996 | 0.976 | 0.62 | 0.194 | 0.183 | 0.697 | 0.776 | 0.751 | 0.269 | 0.185
NCI-H1734 | 0.495 | 0.625 | 0.64 | 0.589 | 0.628 | 0.22 | 0.157 | 0.137 | 0.122 | 0.133 | 1.04 | 0.81 | 0.427 | 0.205 | 0.206 | 0.461 | 0.596 | 0.16 | 0.134 | 0.142
HARA | 0.393 | 0.424 | 0.545 | 0.345 | 0.67 | 0.784 | 1.46 | 0.148 | 0.0637 | 0.0578 | 0.703 | 0.814 | 0.569 | 0.0764 | 0.0911 | 0.325 | 0.424 | 0.167 | 0.158 | 0.137
HCC-15 | 0.561 | 0.774 | 0.683 | 0.579 | 0.78 | 0.265 | 0.339 | 0.144 | 0.116 | 0.134 | 0.857 | 0.81 | 0.496 | 0.248 | 0.123 | 0.653 | 0.966 | 1.03 | 0.156 | 0.149
LCLC-97TM1 | 0.479 | 0.67 | 0.407 | 0.45 | 0.577 | 0.785 | 0.641 | 0.504 | 0.14 | 0.175 | 0.919 | 0.737 | 0.114 | 0.13 | 0.117 | 0.159 | 0.216 | 0.0989 | 0.0787 | 0.0721
RERF-LC-KJ | 0.63 | 0.636 | 0.651 | 0.525 | 0.628 | 1.28 | 0.614 | 0.26 | 0.306 | 0.303 | 0.862 | 0.842 | 0.775 | 0.179 | 0.206 | 0.943 | 0.926 | 0.808 | 0.142 | 0.174
NCI-H1651 | 0.676 | 0.743 | 0.677 | 0.652 | 0.799 | 0.689 | 1.04 | 0.333 | 0.146 | 0.139 | 0.754 | 0.8 | 0.118 | 0.0889 | 0.0915 | 0.476 | 0.543 | 0.392 | 0.261 | 0.0882
NCI-H2170 | 0.73 | 0.759 | 0.716 | 0.493 | 0.798 | 0.624 | 0.802 | 0.661 | 0.205 | 0.219 | 0.291 | 0.273 | 0.205 | 0.199 | 0.171 | 0.854 | 0.83 | 0.184 | 0.146 | 0.2
NCI-H2023 | 0.373 | 0.426 | 0.412 | 0.415 | 0.454 | 0.774 | 0.755 | 0.107 | 0.0867 | 0.0902 | 0.963 | 0.613 | 0.0796 | 0.0761 | 0.142 |  |  |  |  | 
LC-2-ad | 0.768 | 0.885 | 0.826 | 0.791 | 0.954 | 0.897 | 0.319 | 0.325 | 0.289 | 0.375 | 0.995 | 0.715 | 0.121 | 0.127 | 0.131 | 0.872 | 0.657 | 0.166 | 0.17 | 0.142
NCI-H1703 |  |  |  |  |  |  |  |  |  |  | 0.956 |  | 0.323 | 0.174 | 0.113 | 0.141 | 0.174 | 0.0928 | 0.0808 | 0.0722
